The target in assay [1] is T1, human recombinant CyPA (Homo sapiens, UniProt P62937). The experiment in a line: Rotamase inhibition, chymotrypsin-coupled cuvette assay (asterisked values). The assay is classed as biochemical. An excerpt:
(§1) A number of substrates for rotamase are known in the art or can be derived from those known. Typically, the substrate contacts a sample containing a protein with rotamase activity and the conversion of the substrate is detected after a period of time. The method for detecting conversion of the substrate will vary with the particular substrate chosen. One method has been termed the Ki test (See Harding, et al., Nature, 341:758-760 (1989). The cis-trans isomerization of an alanine-proline bond in a model substrate, N-succinyl-Ala-Ala-Pro-Phe-p-nitroanilide, is monitored spectrophotometrically in a chymotrypsin-coupled assay. The action of chymotrypsin releases p-nitroaniline from only the trans form of the substrate. The amount of p-nitroaniline can be monitored in a spectrophotometer, for example. Other methods of detecting the presence of p-nitroaniline can also be used. The inhibition of this reaction caused by different concentrations of inhibitor is determined and the data are analyzed as a change in first-order rate constant as a function of inhibitor concentration, which yields the Ki value.
(§2) The following were added to a plastic cuvette: […] of ice cold assay buffer (25 mM HEPES, pH 7.8, 100 mM NaCl), 10 μL of CyP A (2.5 μM in 10 mM Tris-Cl pH 7.5, 100 mM NaCl, 1 mM dithiothreitol), 25 μL of chymotrypsin (50 mg/ml in 1 mM HCl), and 10 μL of test compound, at various concentrations, in dimethyl sulfoxide. The reaction was initiated by the addition of 5 μL of substrate (succinyl-Ala-Phe-Pro-Phe-para-nitroanilide, 5 mg/mL in 470 mM LiCl in trifluoroethanol). The absorbance at 390 nm versus time was monitored for 90 seconds using a spectrophotometer and the rate constants were determined from the absorbance versus time data files.
(§3) The IC50 values that were obtained for representative compounds in the following Table I refer to the concentration that inhibits 50% of the rotamase activity in a sample. […] The Cyclophilin utilized was a recombinant rat CyPA-GST fusion protein: CypA was amplified from rat brain cDNA using standard PCR methods, primed with the following sequences: 5′ CCCCCCGGGAGTCAACCCCACCGTGTTCTTCGA 3′ and 5′ GGAGATCTAGAGTTGTCCACAGTCGGAGATGGT 3′. The resulting fragment (573 base pairs) was cloned into pCRII and amplified. The CyP sequence was cut out with Smal and EcoRl and cloned into the Smal/EcoRl sites in pGEX2TK (Pharmacia). This plasmid was transformed into BL21 E. coli cells for expression of the GST-CyPA fusion protein.

Assay [2] deals with T2, recombinant rat CyPA-GST fusion protein (Rattus norvegicus, UniProt P10111).
T2 construct: made in house; host or cells: E. coli BL21
T2 sequence (P10111 2-164): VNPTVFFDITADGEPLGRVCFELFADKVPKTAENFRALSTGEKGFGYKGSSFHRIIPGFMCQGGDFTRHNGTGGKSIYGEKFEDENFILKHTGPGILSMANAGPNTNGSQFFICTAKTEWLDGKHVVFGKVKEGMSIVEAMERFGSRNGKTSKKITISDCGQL
The experiment in a line: Rotamase (prolyl peptidyl cis-trans isomerase) inhibition, chymotrypsin-coupled cuvette assay. The class given is biochemical.
Excerpt: as §1, §2, §3

Assay [3] deals with striatal tyrosine hydroxylase-immunoreactive fibres. The experiment in a line: MPTP-lesioned mouse model of Parkinson's disease, striatal TH fiber density. The assay is classed as in vivo. The settings on record: 10 mg/kg s.c. in Intralipid once daily days 1-5, one hour prior to MPTP; analysis day seven. An excerpt:
MPTP (N-methyl-4-phenyl-1,2,3,6-tetrahydropyridine) is a systemically available neurotoxin specific to nigrostriatal dopaminergic neurons, i.e. to the cells that degenerate in human Parkinson's disease. Administration of MPTP to mice leads to a selective partial destruction of the mesotelencephalic dopaminergic projection, and to a loss of dopamine and dopaminergic fibres in the corpus striatum, which is the main forebrain target of midbrain dopaminergic neurons.
Young adult male CD1 albino mice (Harlan—Sprague Dawley; 22-25 g) were dosed i.p. with the dopamine cell-specific neurotoxin N-methyl-4-phenyl-1,2,3,6-tetrahydropyridine (MPTP hydrochloride, calculated as 34 mg/kg free base), dissolved in saline at a concentration of 3.4 mg/ml free base once daily on days one to five. […]
Blinded analysis of TH fiber density in the central striatum was performed at 630× magnification. […] The percentage of sample field covered by TH positive processes and terminals was calculated using an image analysis program (“Simple,” Compix Inc., Pittsburgh, Pa.). The mean striatal innervation density was calculated for each group. The magnitude of striatal deafferentation due to the MPTP lesion was assessed by dividing the observed striatal innervation values obtained in MPTP/vehicle treated cases by the mean striatal innervation density in the Vehicle/Vehicle group and expressed as % loss. […]

Assay [4] concerns the target T1, human recombinant CyPA. Put plainly: Semiautomated microtiter plate assay of rotamase activity inhibition. To be noted: 30 minute preincubation at 4° C., read-out: IC50 (rotamase inhibition, modified plate reader assay). The assay is classed as biochemical. On the procedure: Semiautomated Assay of Rotamase Activity Inhibition: Rotamase inhibition was determined using a semiautomated microtiter plate assay modification of the above described assay [see Küillertz et al., Clin. Chem. 44, 502-508 (1998)]. All dilutions of CyPA, peptide substrate, and chymotrypsin were made in 35 mM ice-cold HEPES buffer. Fifty μL of CyPA solution were added to 50 μL of peptide substrate solution (Phe-Pro-Phe p-nitroanilide, 0.16 mg/ml) in a glass microtiter well plate (the concentration of human recombinant CyP being adjusted so that the reaction rate is increased by a factor of 3 as compared to an uncatalyzed control reaction wherein the peptide substrate is degraded by chymotrypsin alone, in the absence of CyPA and test compound). Using a Beckman Multimek™ 96 automated 96-channel pipettor, 5 μL of test compound solution, or a DMSO blank, were added to each well for a 30 minute preincubation at 4° C. One hundred μL of chymotrypsin solution (1 mg/mL) were added to each well and the absorbance at 390 nm versus time was monitored for 9-10 minutes using a BioRad Ultramark plate reader maintained at 4° C. and the rate constants were determined from the absorbance versus time data files. The cyclophilin utilized was a human recombinant CyPA [Yoo et al., J. Mol. Biol., 269 (1997) 780-95].
IC50 values which were obtained for representative compounds using this modified plate reader assay of rotamase inhibition are given in the following Table II: […]

The subject of assay [5] is Sprague-Dawley rat lumbar spinal cord slices. The experiment in a line: Neuroprotection assay in spinal cord slice preparations (THA-induced cell death). The class given is cell-based. The settings on record: THA 200 μM + compound 10 μM. On the procedure: Neuroprotection Assay in Spinal Cord Slice Preparations: All cultures were derived from postnatal day 8 (P8) Sprague-Dawley rat lumbar spinal cord slices of 325 micron thickness, prepared using a commercially available Mcllwain tissue chopper. Each experiment consisted of two 6-well plates with 5 slices from 4 different animals per well. Media changes were performed every 3 to 4 days. Cultures were treated with THA [L(−)-threo-3-hydroxyaspartic acid; Tocris Cookson Inc., Ballwin, Mo.] at 200 μM+compound (10 μM) after one week in culture. The control was an untreated sample with 0.1% DMSO as vehicle. The THA control was a THA treated sample with 0.1% DMSO as vehicle. Two wells were used per condition. One media change with new THA and compounds was performed. […] Quantification of surviving neurons was performed on a Zeiss Axiovert microscope. Neuronal survival was determined by observing an intact neuronal cell body with processes located ventrally of the central canal in each hemisphere. […] Each hemisphere was counted individually. The statistics were performed with StatView™ software on a minimum of three different experiments per condition and significance was determined as compared to THA control. The percent of protection was determined from the average number of living neurons by the following equation: (drug treatment condition−THA control)/(Untreated control−THA control). […]

Where [6] appears, read: human recombinant CyPA, values with asterisk, read-out: IC50 (rotamase activity).

Data on nine molecules can be found in patent US20020127605A1 (priority 2000, published 2002).

Each structure is given as a SMILES string. Read-outs that look alike come from different tables or passages of the source.

One may read the IC50 as the concentration needed to halve the response being measured.

T1 sequence (P62937 whole entry): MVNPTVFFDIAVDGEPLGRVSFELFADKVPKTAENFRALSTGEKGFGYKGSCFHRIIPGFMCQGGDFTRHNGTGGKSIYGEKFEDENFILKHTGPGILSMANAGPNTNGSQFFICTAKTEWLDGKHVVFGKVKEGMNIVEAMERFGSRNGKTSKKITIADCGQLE

`O=C(Nc1cccc(N(S(=O)(=O)c2ccc3ccccc3c2)S(=O)(=O)c2ccc3ccccc3c2)c1)c1cc(Cl)cc(Cl)c1` [Compound 8]: the IC50 at human recombinant CyPA [1] was determined as 804 nM; in assay [2], 701 nM.
Turning to `O=C(Nc1cccc(N(S(=O)(=O)c2cc(Cl)cc(Cl)c2)S(=O)(=O)c2cc(Cl)cc(Cl)c2)c1)c1cc(Cl)cc(Cl)c1` [Compound 8a], the “protection of striatal tyrosine hydroxylase-immunoreactive fibres” value in assay [3] is 37,2%. In addition, the IC50 in assay [2] was 364 nM.
With `S=C(Nc1ccc(I)cc1)NC1CCCCC1NC(=S)Nc1ccc(I)cc1` (stereo not shown) [Compound 13, [(4-iodophenyl)amino]{[2-({[(4-iodophenyl)amino]thioxomethyl}amino)cyclohexyl]amino}methane-1-thione], the 50% inhibitory concentration (IC50) was 680 nM in assay [2] (recombinant rat CyPA-GST fusion protein, values without asterisk, read-out: IC50 (rotamase activity)) and 2060 nM at human recombinant CyPA [4].
`O=C(Nc1cc(Cl)cc(Cl)c1)N[C@H]1CCCC[C@H]1NC(=O)Nc1cc(Cl)cc(Cl)c1` [Compound 15a]: the “protection from THA-induced cell death” value in assay [5] is “complete protection”. Moreover, in assay [5] (untreated control 26.4±4.2, THA control 15.97±2.04, mean±standard error), the “SMI-32 immunoreactive neurons per ventral hemisphere” value is listed as 26.5±2.7 cells/ventral hemisphere. For the same molecule, the IC50 at human recombinant CyPA [1] was 521 nM; in assay [2], 610 nM. Also, in assay [3], the “protection of striatal tyrosine hydroxylase-immunoreactive fibres” value stood at 72.4%.
Regarding `S=C(Nc1cc(Cl)cc(Cl)c1)Nc1cccc(C=NN(c2ccccc2)c2ccccc2)c1` [Compound 21, ({3-[2-aza-2-(diphenylamino)vinyl]phenyl}amino)[(3,5-dichlorophenyl)amino]methane-1-thione], on human recombinant CyPA [1] (setting [6]), the IC50 worked out at 512 nM.
Still for that read-out and setting: to `O=S(=O)(Oc1cccc(NC(=S)Nc2cc(Cl)cc(Cl)c2)c1)c1c(F)c(F)c(F)c(F)c1F` [Compound 22, 3-({[(3,5-dichlorophenyl)amino]thioxomethyl}amino)phenyl 2,3,4,5,6-pentafluorobenzenesulfonate] belongs 733 nM.
Turning to `O=C(NNC(=O)c1cccc(NC(=O)c2cccc(OCc3ccccc3)c2)c1)c1cc(Cl)cc(Cl)c1` [Compound 30, 1-{3-[(3-Benzyloxy)phenylcarboxamido]benzoyl}-2-(3,5-dichlorobenzoyl)hydrazine], the values for the IC50 at human recombinant CyPA [1] (setting [6]) and at human recombinant CyPA [4] were 464 nM and 3760 nM, respectively.
Turning to `O=C(NNS(=O)(=O)c1ccc(Cl)c(Cl)c1)c1cccc(NC(=O)c2cccc(OCc3ccccc3)c2)c1` [Compound 31, 1-{3-[(3-Benzyloxy)phenylcarboxamido]benzoyl}-2-(3,4-dichlorobenzenesulfonyl)hydrazine], the IC50 on human recombinant CyPA [1] (setting [6]) was 974 nM; on human recombinant CyPA [4], 2710 nM.
For the molecule `O=C(CCCCc1ccccc1)Nc1cccc(C(=O)NNC(=S)Nc2ccc(Cl)c(Cl)c2)c1` [Compound 33, 1-{3-[(5-Phenyl)valeroylamino]benzoyl}-4-(3,4-dichlorophenyl)thiosemicarbazide], the IC50 on human recombinant CyPA [1] (setting [6]) amounted to 85 nM; on human recombinant CyPA [4], 713 nM.
